Common to all, as to assay: inhibition of tumour cell growth, NCI panel, 48 h
Experiment [1] deals with CAKI-1.
The subject of experiment [2] is COLO 205.
For experiment [3], the system named is EKVX.
The test system of experiment [4] is HCT-15.
The subject of experiment [5] is HOP-62.
The test system of experiment [6] is K562.
Experiment [7] concerns LOX IMVI.
The subject of experiment [8] is M14.
In experiment [9] the test system is MCF7.
Experiment [10] relates to MDA-MB-231.
Experiment [11] deals with NCI-H23.
For experiment [12], the system named is RXF 393.
The test system of experiment [13] is SF-295.
In experiment [14] the test system is SW-620.
Experiment [15] deals with UACC-62.
The test system of experiment [16] is OVCAR-4.
Experiment [17] concerns OVCAR-8.
Experiment [18] concerns TK-10.
Experiment [19] relates to NCI/ADR-RES.

Molecules are shown by their SMILES.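 Five compound concentrations were applied to cells in 96-well plates for 48 hours; endpoints were derived by simple linear interpolation of the resulting dose-response curve. GI50 = concentration required for 50% inhibition of growth.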 Activity calls are given as the source filed them. No stated cut-off is given here; in the data, active = GI50 up to about 1.1 µM and inactive = higher. Some results are limits rather than exact numbers.

As for `CCC(C)NC1=NCC(C)S1` (stereo not given), the GI50 was > 100 µM (inactive) in [1]; > 100 µM (inactive) in experiment [2]; > 100 µM (inactive) in [3]; above 100 µM in [4]; > 100 µM (inactive) in [5]; > 100 µM (inactive) in [6]. Besides, the GI50 was > 100 µM (inactive) in experiment [7]; > 100 µM (inactive) in [8]; > 100 µM (inactive) in [9]; > 100 µM (inactive) in experiment [10]; > 100 µM (inactive) in [11]; 28.3 µM (inactive) in experiment [12]. Further, the GI50 in [13], in experiment [14] and in [15] was > 100 µM (inactive) each time.

Regarding `COc1ccc(C2=CC3CCC2C3)cc1` (stereo not given), the GI50 in experiment [1] was > 100 µM (inactive); in [2] it was > 100 µM (inactive); in experiment [3], > 100 µM (inactive); in experiment [4], above 100 µM; in experiment [5] it was > 100 µM (inactive); in experiment [6], > 100 µM (inactive). Also, the GI50 in experiment [7], in experiment [8], in experiment [11], in experiment [16], in experiment [17] and in experiment [12] was > 100 µM (inactive) throughout. The GI50 in [13], in experiment [14], in experiment [18] and in experiment [15] was > 100 µM (inactive) in each case.

For the molecule `ClC1=C(Cc2ccccc2)Cc2ccc3c(c21)CCC3`, the GI50 in experiment [1] is 41.4 µM (inactive); in [2] it was 13.4 µM (inactive); in experiment [3], 39.3 µM (inactive); in [4], 31.3 µM; in experiment [5] it was 34.1 µM (inactive); in experiment [6], 31.1 µM (inactive). Moreover, the GI50 in experiment [7] was 17.9 µM (inactive); in experiment [8] it was > 100 µM (inactive); in [9], 18.9 µM (inactive); in experiment [10], 21.8 µM (inactive); in experiment [11], 19.7 µM (inactive); in experiment [16] it was 9.23 µM (inactive). Moreover, the GI50 is 36.8 µM (inactive) in experiment [17]; 19.7 µM (inactive) in experiment [12]; 29.4 µM (inactive) in experiment [13]; 25.7 µM (inactive) in [14]; 72.3 µM (inactive) in [18]; 27.6 µM (inactive) in experiment [15].

For `C=CCCCC1CCCNC1=S` (stereo not given), the GI50 in experiment [1] was > 100 µM (inactive); in [3], > 100 µM (inactive); in [4], above 100 µM; in [5], > 100 µM (inactive); in [6], > 100 µM (inactive); in experiment [8] it was > 100 µM (inactive). For the same molecule, the GI50 in experiment [9], in experiment [10], in experiment [11], in experiment [16], in experiment [17] and in experiment [12] was > 100 µM (inactive) each time. Further, the GI50 in experiment [13], in experiment [14], in experiment [18] and in experiment [15] was > 100 µM (inactive) throughout.

Turning to `c1ccc(Nc2nnc(-c3ccccc3Nc3ccccc3-c3nnc(Nc4ccccc4)s3)s2)cc1`, the GI50 in [2] is > 100 µM (inactive); in [3] it was > 100 µM (inactive); in experiment [4], above 100 µM; in [5] it was > 100 µM (inactive); in experiment [6], > 100 µM (inactive); in [7], > 100 µM (inactive). For the same molecule, the GI50 in experiment [8], in [9], in [11], in [19], in [16] and in [17] was > 100 µM (inactive) in each case. Moreover, the GI50 in experiment [12], in experiment [13], in experiment [14], in experiment [18] and in [15] was > 100 µM (inactive) throughout.

Turning to `Cc1cc(O)c(C(C)C)cc1C(=S)Nc1ccc(Cl)cc1`, the GI50 in [1] is 14.6 µM (inactive); in [2], 16.1 µM (inactive); in experiment [3], 12.7 µM (inactive); in [4] it was 10.7 µM; in experiment [5] it was 18.5 µM (inactive); in [6], 4.35 µM (inactive). The GI50 in experiment [7] was 11.2 µM (inactive); in [9] it was 8.11 µM (inactive); in experiment [11], 5.93 µM (inactive); in [19] it was 12.9 µM (inactive); in experiment [16], 7.19 µM (inactive); in experiment [17] it was 10.6 µM (inactive). The GI50 in [13] was 14.2 µM (inactive); in [14], 14.3 µM (inactive); in experiment [15], 10 µM (inactive).

As for `Cc1ccc2c(c1)Nc1ccccc1P2(=O)O`, the GI50 in experiment [1] was > 100 µM (inactive); in [2], > 100 µM (inactive); in [3] it was > 100 µM (inactive); in experiment [4], above 100 µM; in experiment [5] it was > 100 µM (inactive); in experiment [6] it was > 100 µM (inactive). The GI50 in [7], in experiment [8], in experiment [10], in [11], in [19] and in [16] was > 100 µM (inactive) in each case. Further, the GI50 in experiment [17], in experiment [12], in experiment [13], in experiment [14], in experiment [18] and in [15] was > 100 µM (inactive) in each case.

Turning to `COP(=O)(OC)/C(=C\C1=CN(C(c2ccccc2)(c2ccccc2)c2ccccc2)CN1)NC=O`, the GI50 in [1] is 16.6 µM (inactive); in [2] it was 17.3 µM (inactive); in experiment [4], 16.6 µM; in experiment [5] it was 16.5 µM (inactive); in experiment [6] it was 25.3 µM (inactive); in experiment [7], 12.8 µM (inactive). Besides, the GI50 is 19.9 µM (inactive) in experiment [8]; 16.8 µM (inactive) in [10]; 18.2 µM (inactive) in experiment [11]; 15.8 µM (inactive) in [19]; 16.3 µM (inactive) in experiment [16]; 21.3 µM (inactive) in experiment [17]. In addition, the GI50 is 16.4 µM (inactive) in [13], 20.4 µM (inactive) in experiment [14] and 21.2 µM (inactive) in [18].

Take `CCCn1cc2c(SC)nc(SC)nc2n1`: the GI50 in experiment [1] was > 100 µM (inactive); in [2] it was > 100 µM (inactive); in [3], > 100 µM (inactive); in experiment [4], above 100 µM; in [6], > 100 µM (inactive); in experiment [7], > 100 µM (inactive). The GI50 in experiment [8], in experiment [11], in [16], in experiment [17], in experiment [12] and in experiment [13] was > 100 µM (inactive) in each case. Further, the GI50 in experiment [14] and in experiment [18] was > 100 µM (inactive) each time.

Regarding `CCOC(=O)c1sc2nc(SC)nc3c2c1NC(=O)CN3c1ccc(F)cc1`, the GI50 in experiment [1] was > 100 µM (inactive); in experiment [2], 68.9 µM (inactive); in experiment [3], 47.4 µM (inactive); in experiment [5], 15.7 µM (inactive); in experiment [6] it was 77.6 µM (inactive); in experiment [7] it was 38.3 µM (inactive). Besides, the GI50 is 37.9 µM (inactive) in [8]; 87.3 µM (inactive) in [9]; 26.9 µM (inactive) in experiment [10]; 50.6 µM (inactive) in experiment [11]; 21.4 µM (inactive) in [16]; 22.1 µM (inactive) in experiment [17]. For the same molecule, the GI50 is 18.8 µM (inactive) in [12]; 20.1 µM (inactive) in experiment [13]; 38.5 µM (inactive) in experiment [14]; 30.7 µM (inactive) in experiment [18]; 47 µM (inactive) in experiment [15].

Regarding `CCNC(=O)Nc1cccc(NC(=O)NCC)n1`, the GI50 in experiment [1] was 75.2 µM (inactive); in experiment [2] it was > 100 µM (inactive); in experiment [3], 35.8 µM (inactive); in experiment [5], 81.8 µM (inactive); in experiment [6], > 100 µM (inactive); in experiment [8] it was > 100 µM (inactive). The GI50 in experiment [9] was 57.1 µM (inactive); in [10] it was > 100 µM (inactive); in experiment [11], > 100 µM (inactive); in [16], > 100 µM (inactive); in experiment [17], > 100 µM (inactive); in experiment [12] it was > 100 µM (inactive). Also, the GI50 in experiment [13] is > 100 µM (inactive); in experiment [14], > 100 µM (inactive); in experiment [18], 50.2 µM (inactive); in experiment [15] it was 36 µM (inactive).

Turning to `Cc1ccc(/N=N/c2c(O)ccc3cc(S(=O)(=O)O)ccc23)cc1`, the GI50 in experiment [1] was 23.9 µM (inactive); in experiment [2] it was 73.5 µM (inactive); in [3], 29.6 µM (inactive); in experiment [4], above 100 µM; in [5], > 100 µM (inactive); in [6], > 100 µM (inactive). Also, the GI50 in experiment [7] was 18.2 µM (inactive); in experiment [8] it was > 100 µM (inactive); in experiment [10] it was 18.8 µM (inactive); in [11] it was > 100 µM (inactive); in experiment [19] it was > 100 µM (inactive); in experiment [16] it was > 100 µM (inactive). The GI50 in [17], in experiment [12], in experiment [13], in [14], in [18] and in experiment [15] was > 100 µM (inactive) in each case.

Source of the values: ChEMBL document CHEMBL1201862, “PubChem BioAssay data set” (2004).
